Drawing on patent US11180483B2, “Substituted reverse pyrimidine Bmi-1 inhibitors” (PTC Therapeutics, Inc., priority 2012, dated 2021), this text covers EC50 and melting point for 30 molecules.

The subject of one series is Bmi-1. Nature of the series: Sandwich ELISA Assay (Bmi-1 ELISA) in HT-1080 cells. The class given is cell-based. In a few lines: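 Bmi-1 in lysates was measured by a three-antibody ELISA with TMB, OD450 minus OD570 reference, interpolated on a GST-tagged recombinant Bmi-1 standard curve, 0-8000 pg/mL. Lysates came from HT-1080 cells treated 40-48 h with compound, final DMSO 0.5%.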

For `Nc1cc(Nc2ccc(OC(F)F)c(F)c2)nc(-c2c(C3CC3)nc3ccc(F)cn23)n1` [Cpd 75, 2-(2-cyclopropyl-6-fluoroimidazo[1,2-a]pyridin-3-yl)-N-[4-(difluoromethoxy)-3-fluorophenyl]pyrimidine-4,6-diamine], the melting point is 198 to 200 °C. Besides, in the series on Bmi-1, the half-maximal effective concentration (EC50) lay in the range of 100 to 3000 nM.

On to `CCc1nc2ccc(F)cc2n1-c1nc(N)cc(Nc2ccc(OC(F)F)cc2)n1` [Cpd 144, N-[4-(difluoromethoxy)phenyl]-2-(2-ethyl-6-fluoro-1H-benzimidazol-1-yl)pyrimidine-4,6-diamine], for which the melting point lay within 166 to 168 °C. For the same molecule, the concentration giving a half-maximal response (EC50) in the series on Bmi-1 was in the range of 10 to 100 nM.

With `COc1ccc(Nc2nc(-c3c(C)nc4ccc(F)cn34)nc(N)c2F)cc1` [Cpd 252, 5-fluoro-2-(6-fluoro-2-methylimidazo[1,2-a]pyridin-3-yl)-N-(4-methoxyphenyl)pyrimidine-4,6-diamine], the melting point is 204 to 206 °C. Further, the EC50 in the series with Bmi-1 is 10 to 100 nM.

On to `Cc1nc2ccc(F)cn2c1-c1nc(N)c(F)c(Nc2ccc(Cl)cc2)n1` [Cpd 251, N-(4-chlorophenyl)-5-fluoro-2-(6-fluoro-2-methylimidazo[1,2-a]pyridin-3-yl)pyrimidine-4,6-diamine], for which the melting point lay within 226 to 229 °C. In the series on Bmi-1, this molecule showed a concentration giving a half-maximal response (EC50) of 100 to 3000 nM.

Turning to `CCc1nn2ccc(F)cc2c1-c1nc(N)c(F)c(Nc2ccc(C(F)(F)F)cc2)n1` [Cpd 187, 2-(2-ethyl-5-fluoropyrazolo[1,5-a]pyridin-3-yl)-5-fluoro-N-[4-(trifluoromethyl)phenyl]pyrimidine-4,6-diamine], the melting point lay in the range of 164 to 166 °C. In addition, the EC50 in the series on Bmi-1 is 100 to 3000 nM.

In the case of `Cc1nc2ccc(F)cc2n1-c1nc(N)cc(Nc2ccc(N(C)C)cc2)n1` [Cpd 266, N-[4-(dimethylamino)phenyl]-2-(6-fluoro-2-methyl-1H-benzimidazol-1-yl)pyrimidine-4,6-diamine], the melting point fell in the range of 122 to 125 °C. Further, the 50% effective concentration (EC50) in the series on Bmi-1 lay within 10 to 100 nM.

`CC(C)c1nc2ccccc2n1-c1nc(N)cc(Nc2ccc(C(F)(F)F)cc2)n1` [Cpd 151, 2-[2-(propan-2-yl)-1H-benzimidazol-1-yl]-N-[4-(trifluoromethyl]phenyl]pyrimidine-4,6-diamine]: the melting point fell in the range of 216 to 218 °C. Also, in the series with Bmi-1, the EC50 was 10 to 100 nM.

`Cc1cccc(Nc2cc(N)nc(-n3c(C)nc4ccc(F)cc43)n2)c1` [Cpd 268, 2-(6-fluoro-2-methyl-1H-benzimidazol-1-yl)-N-(3-methylphenyl)pyrimidine-4,6-diamine]: the melting point was in the range of 203 to 205 °C. Also, the half-maximal effective concentration (EC50) in the series on Bmi-1 lay within 100 to 3000 nM.

In turn, `Nc1cc(Nc2ccc(OC(F)F)cc2)nc(-n2c(C(F)F)nc3ccc(F)cc32)n1` [Cpd 145, N-[4-(difluoromethoxy)phenyl]-2-[2-(difluoromethyl)-6-fluoro-1H-benzimidazol-1-yl]pyrimidine-4,6-diamine] came in with a melting point of 114 to 115 °C. The molecule also registered an EC50 in the series with Bmi-1 of 1 to 10 nM.

`CCc1nc2ccc(F)cc2n1-c1nc(N)cc(Nc2ccc(C(F)(F)F)cc2)n1` [Cpd 81, 2-(2-ethyl-6-fluoro-1H-benzimidazol-1-yl)-N-[4-(trifluoromethyl)phenyl]pyrimidine-4,6-diamine] registered a melting point of 201 to 203 °C. This molecule had an EC50 in the series with Bmi-1 of 10 to 100 nM.

For the molecule `Cc1nc2ccc(F)cc2n1-c1nc(N)cc(Nc2ccc(OC(F)F)c(F)c2)n1` [Cpd 76, N-[4-(difluoromethoxy)-3-fluorophenyl]-2-(6-fluoro-2-methyl-1H-benzimidazol-1-yl)pyrimidine-4,6-diamine], the melting point was in the range of 182 to 183 °C. Also, the EC50 in the series with Bmi-1 fell in the range of 10 to 100 nM.

As for `Cc1nc2ccc(F)cc2n1-c1nc(N)cc(Nc2ccc(Cl)c(F)c2)n1` [Cpd 267, N-(4-chloro-3-fluorophenyl)-2-(6-fluoro-2-methyl-1H-benzimidazol-1-yl)pyrimidine-4,6-diamine], the melting point lay within 225 to 227 °C. This molecule also displayed an EC50 with Bmi-1 of 100 to 3000 nM.

Take `Cc1nc2ccccc2n1-c1nc(N)cc(Nc2ccc3c(c2)OCO3)n1` [Cpd 205, N-(1,3-benzodioxol-5-yl)-2-(2-methyl-1H-benzimidazol-1-yl)pyrimidine-4,6-diamine]: the melting point was 166 to 167 °C. The same molecule displayed an EC50 with Bmi-1 of 1 to 10 nM.

Regarding `Cc1nc2ccc(F)cc2n1-c1nc(N)cc(Nc2ccc3c(c2)OC(F)(F)O3)n1` [Cpd 269, N-(2,2-difluoro-1,3-benzodioxol-5-yl)-2-(6-fluoro-2-methyl-1H-benzimidazol-1-yl)pyrimidine-4,6-diamine], the melting point is 212 to 215 °C. This molecule showed a concentration for a half-maximal effect (EC50) in the series with Bmi-1 of 100 to 3000 nM.

For the molecule `Cc1nc2ccc(F)cc2n1-c1nc(N)cc(Nc2ccc(Cl)cc2)n1` [Cpd 263, N-(4-chlorophenyl)-2-(6-fluoro-2-methyl-1H-benzimidazol-1-yl)pyrimidine-4,6-diamine], the melting point was 183 to 185 °C. Besides, in the series with Bmi-1, the concentration giving a half-maximal response (EC50) was 10 to 100 nM.

Molecule `Nc1cc(Nc2ccc(C(F)(F)F)cc2)nc(-c2c(C(F)(F)F)nc3ccccn23)n1` [Cpd 66, 2-[2-(trifluoromethyl)imidazo[1,2-a]pyridin-3-yl]-N-[4-(trifluoromethyl)phenyl]pyrimidine-4,6-diamine] returned a melting point of 203 to 205 °C. This molecule also returned an EC50 in the series with Bmi-1 of 10 to 100 nM.

Turning to `Nc1cc(Nc2ccc(C(F)(F)F)cc2)nc(-n2c(C(F)F)nc3ccccc32)n1` [Cpd 152, 2-[2-(difluoromethyl)-1H-benzimidazol-1-yl]-N-[4-(trifluoromethyl)phenyl]pyrimidine-4,6-diamine], the melting point was in the range of 187 to 188 °C. This molecule also registered a half-maximal effective concentration (EC50) in the series with Bmi-1 of 10 to 100 nM.

The molecule `Cc1nn(C)c(C)c1-c1nc(N)cc(Nc2ccc(C(F)(F)F)cc2)n1` [Cpd 70, N-[4-(trifluoromethyl)phenyl]-2-(1,3,5-trimethyl-1H-pyrazol-4-yl)pyrimidine-4,6-diamine] showed a melting point of 270 to 271 °C. Further, the concentration giving a half-maximal response (EC50) with Bmi-1 lay within 100 to 3000 nM.

The molecule `COc1ccc(Nc2cc(N)nc(-n3c(C)nc4ccccc43)n2)cc1F` [Cpd 207, N-(3-fluoro-4-methoxyphenyl)-2-(2-methyl-1H-benzimidazol-1-yl)pyrimidine-4,6-diamine] returned a melting point of 233 to 234 °C. This molecule showed a concentration giving a half-maximal response (EC50) in the series with Bmi-1 of 1 to 10 nM.

`Nc1cc(Nc2ccc(OC(F)F)cc2)nc(-n2c(C3CC3)nc3ccc(F)cc32)n1` [Cpd 143, 2-(2-cyclopropyl-6-fluoro-1H-benzimidazol-1-yl)-N-[4-(difluoromethoxy)phenyl]pyrimidine-4,6-diamine] yielded a melting point of 175 to 177 °C. Also, the EC50 in the series with Bmi-1 was in the range of 1 to 10 nM.

In the case of `Nc1cc(Nc2ccc(OC(F)F)c(F)c2)nc(-n2c(C3CC3)nc3ccc(F)cc32)n1` [Cpd 78, 2-(2-cyclopropyl-6-fluoro-1H-benzimidazol-1-yl)-N-[4-(difluoromethoxy)-3-fluorophenyl]pyrimidine-4,6-diamine], the melting point was 186 to 188 °C. The molecule further returned a half-maximal effective concentration (EC50) in the series with Bmi-1 of 10 to 100 nM.

For the molecule `Cc1cn2c(-c3nc(N)c(F)c(Nc4ccc(C(F)(F)F)cc4)n3)c(C)nc2c(C)n1` [Cpd 174, 5-fluoro-N-[4-(trifluoromethyl)phenyl]-2-(2,6,8-trimethylimidazo[1,2-a]pyrazin-3-yl)pyrimidine-4,6-diamine], the melting point lay in the range of 166 to 168 °C. In the series on Bmi-1, this molecule had a 50% effective concentration (EC50) of 100 to 3000 nM.

As for `Cc1nc2ncc(F)cn2c1-c1nc(N)cc(Nc2ccc(C(F)(F)F)cc2)n1` [Cpd 100, 2-(6-fluoro-2-methylimidazo[1,2-a]pyrimidin-3-yl)-N-[4-(trifluoromethyl)phenyl]pyrimidine-4,6-diamine], the melting point fell in the range of 256 to 258 °C. In the series on Bmi-1, this molecule had an EC50 of 100 to 3000 nM.

`COc1ccc(Nc2cc(N)nc(-n3c(C)nc4ccccc43)n2)cn1` [Cpd 208, N-(6-methoxypyridin-3-yl)-2-(2-methyl-1H-benzimidazol-1-yl)pyrimidine-4,6-diamine] gave a melting point of 118 to 119 °C. Besides, the EC50 in the series on Bmi-1 lay within 1 to 10 nM.

In turn, `Cc1nc2ccc(F)cc2n1-c1nc(N)cc(Nc2ccc(OC(F)F)cc2)n1` [Cpd 72, N-[4-(difluoromethoxy)phenyl]-2-(6-fluoro-2-methyl-1H-benzimidazol-1-yl)pyrimidine-4,6-diamine] showed a melting point of 168 to 170 °C. Further, the EC50 with Bmi-1 was in the range of 10 to 100 nM.

With `CCc1nn2ccc(F)cc2c1-c1nc(N)c(F)c(Nc2ccc(OC(F)F)cc2)n1` [Cpd 186, N-[4-(difluoromethoxy)phenyl]-2-(2-ethyl-5-fluoropyrazolo[1,5-a]pyridin-3-yl)-5-fluoropyrimidine-4,6-diamine], the melting point is 103 to 105 °C. For the same molecule, in the series on Bmi-1, the EC50 was in the range of 100 to 3000 nM.

As to `CCc1nc2ccccc2n1-c1nc(N)cc(Nc2ccc(C(F)(F)F)cc2)n1` [Cpd 153, 2-(2-ethyl-1H-benzimidazol-1-yl)-N-[4-(trifluoromethyl]phenyl]pyrimidine-4,6-diamine], the melting point lay in the range of 183 to 185 °C. The molecule further had an EC50 with Bmi-1 of 10 to 100 nM.

The molecule `Cc1cn2c(-c3nc(N)c(F)c(Nc4ccc(OC(F)F)c(F)c4)n3)c(C)nc2c(C)n1` [Cpd 176, N-[4-(difluoromethoxy)-3-fluorophenyl]-5-fluoro-2-(2,6,8-trimethylimidazo[1,2-a]pyrazin-3-yl)pyrimidine-4,6-diamine] yielded a melting point of 140 to 141 °C. The same molecule showed a concentration giving a half-maximal response (EC50) in the series with Bmi-1 of 100 to 3000 nM.

The molecule `Nc1cc(Nc2ccc(OC(F)(F)F)cc2)nc(-c2c(C(F)(F)F)nc3ccccn23)n1` [Cpd 67, N-[4-(trifluoromethoxy)phenyl]-2-[2-(trifluoromethyl]imidazo[1,2-a]pyridin-3-yl]pyrimidine-4,6-diamine] had a melting point of 199 to 202 °C. In the series on Bmi-1, the concentration for a half-maximal effect (EC50) lay within 100 to 3000 nM.

`CCc1nc2ccc(F)cc2n1-c1nc(N)cc(Nc2ccc(OC(F)F)c(F)c2)n1` [Cpd 77, N-[4-(difluoromethoxy)-3-fluorophenyl]-2-(2-ethyl-6-fluoro-1H-benzimidazol-1-yl)pyrimidine-4,6-diamine] returned a melting point of 156 to 158 °C. The EC50 in the series with Bmi-1 lay in the range of 10 to 100 nM.
